Some test systems named below: XF 498 CNS; MDA-N; P388/ADR leukemia; DLD-1 colon; M19-MEL melanoma; SNB-78 CNS; DMS 114 small cell lung; HOP-18 NSCLC; SN12K1 renal; P388 leukemia.
What all share (experiment): NCI tumour cell line growth inhibition, 48 h

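1) Cells in 96-well plates. 2) Compound, 48 h, 5 concentrations. 3) Linear interpolation between surrounding doses. 4) Unreached endpoint = highest concentration. TGI denotes the concentration required for complete inhibition of growth.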

On to `C=C1[C@@H](C)[C@H]2[C@H](Cc3ccccc3)NC(=O)[C@]23OC(=O)/C=C/[C@H](O)CCC[C@@H](C)C/C=C/[C@H]3[C@@H]1O`, for which the TGI is 8.97 µM in the assay on XF 498 CNS; greater than 100 µM in the assay on MDA-N; 73.4 µM with P388/ADR leukemia; greater than 100 µM in the assay with DLD-1 colon; greater than 100 µM with M19-MEL melanoma; 15.2 µM with SNB-78 CNS. Besides, the TGI in the assay on DMS 114 small cell lung is greater than 100 µM; with HOP-18 NSCLC, 3.03 µM; in the assay with SN12K1 renal, 41.1 µM; in the assay with P388 leukemia, greater than 87.1 µM.

(Values after PubChem BioAssay (NCI).)
